Test results from US12133846B2, “Electrophilic androgen receptor (AR) antagonists for AR downregulation and ferroptosis induction in cancer cells” (priority 2019, dated 2024).
“And” between values parts separate entries of the source, which are not always exact repeats. Equal values may be shown once.

Key:
VCaP cells = assay: MTT viability assay, VCaP cells; format: cell-based; details: Homo sapiens, VCaP; 72 h, full media, MTT; read-out: IC50, viability of VCaP cells
Text: (§1) Biological Characterization. ITC-ARi hybrid drugs effectively reduce the viability of PCa cells. By using an MTT assay, it was first examined if the newly synthesized hybrid drugs affect the viability of CRPC-relevant PCa cells. PCa VCaP cells naturally express abundant wild type FL AR as well as AR splice variants (e.g., AR-V7). These cells were, therefore, used as one of the cell culture models in this work to investigate the drug-caused viability loss and AR downregulation.

22Rv1 cells = assay: MTT viability assay, 22Rv1 cells; format: cell-based; details: 5 μM, 72 h
Text: as §1

C4-2 cells = assay: MTT viability assay, C4-2 cells; format: cell-based; details: 5 μM, 72 h
Text: as §1

LNCaP and RWPE-1 cells = assay: MTT viability, PCa LNCaP versus non-cancerous RWPE-1 cells; format: cell-based; details: 72 h, 2.5 to 10 μM
Text: Because of the better selectivity and water solubility of 2-63 over 12b, 2-63 was used for further in vitro characterization and mechanistic studies.

[1] = test system: AR transcriptional activity in MDA-kb2 cells; assay: cells; format: cell-based; details: DHT 1 nM
Protocol: MDA-kb2-cell-based ARE luciferase assays were performed to assess the influence of 2-63 and related compounds on AR transcriptional activity. […] Upon androgen stimulation and addition of a luciferase substrate, […], and the intensity is proportional to the extent of AR activation. An agent that either antagonistically competes with DHT for AR binding or reduces the expression of AR diminishes luciferase activity/fluorescence signal in this experimental system. […] 10b (an alcohol) and 11 b (an azide) are synthetic precursors of the ITC hybrid 12b.
Luciferase Assay. […] For all procedures, cells were incubated at CO2 free condition. Steady-Glo® (Promega Corp., Madison, WI) reagent was added to culture media with shaking for 10 min. Samples (100 μL) were transferred to an opaque 96-well white plate, and luminescence was measured using a luminometer.

FL AR and AR-V7 [2] = target: T1, FL AR and AR-V7 (Homo sapiens, UniProt P10275); assay: Western blotting of FL AR and AR-V7 in VCaP cells; format: cell-based; details: full media, 16 h, 2-63, 12b 5 and 15 μM, Enz 10 μM, SAHA 1 μM
T1 construct: Whole cell lysates were subjected to Western blotting and probed with the indicated antibodies; endogenous in cells; host or cells: VCaP
T1 sequence (P10275 1-920): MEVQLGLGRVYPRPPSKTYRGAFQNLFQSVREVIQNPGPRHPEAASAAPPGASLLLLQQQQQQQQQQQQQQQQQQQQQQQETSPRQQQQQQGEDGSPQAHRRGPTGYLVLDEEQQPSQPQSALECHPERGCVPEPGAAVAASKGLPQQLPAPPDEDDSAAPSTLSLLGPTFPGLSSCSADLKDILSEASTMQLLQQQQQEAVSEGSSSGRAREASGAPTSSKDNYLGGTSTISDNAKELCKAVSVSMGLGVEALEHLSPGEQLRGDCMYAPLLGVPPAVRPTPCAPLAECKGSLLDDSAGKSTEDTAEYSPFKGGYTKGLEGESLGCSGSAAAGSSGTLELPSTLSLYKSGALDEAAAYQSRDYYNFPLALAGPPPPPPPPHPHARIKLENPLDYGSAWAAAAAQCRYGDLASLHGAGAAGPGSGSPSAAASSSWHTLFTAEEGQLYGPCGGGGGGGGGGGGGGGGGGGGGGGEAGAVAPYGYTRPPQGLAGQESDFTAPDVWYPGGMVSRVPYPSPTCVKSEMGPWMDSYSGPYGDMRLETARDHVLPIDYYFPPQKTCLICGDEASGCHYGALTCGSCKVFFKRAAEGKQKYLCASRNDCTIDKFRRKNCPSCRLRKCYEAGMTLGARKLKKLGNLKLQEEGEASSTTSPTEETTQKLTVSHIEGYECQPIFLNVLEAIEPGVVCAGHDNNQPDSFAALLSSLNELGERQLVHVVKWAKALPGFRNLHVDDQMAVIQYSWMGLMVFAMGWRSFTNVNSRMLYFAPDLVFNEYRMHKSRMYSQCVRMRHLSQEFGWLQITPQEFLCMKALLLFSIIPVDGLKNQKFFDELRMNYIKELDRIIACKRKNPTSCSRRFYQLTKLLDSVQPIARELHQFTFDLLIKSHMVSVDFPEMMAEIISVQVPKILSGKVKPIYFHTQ
Protocol: (§2) Western Blotting. […] Proteins in cell lysates (40 μg) were separated using electrophoresis on SDS-PAGE and transferred onto PVDF (polyvinylidenedifluoride) membranes. Membranes were blocked in 5% fat-free milk followed by incubation with primary antibodies overnight at 4° C., and the secondary horseradish peroxidase-conjugated anti-rabbit or anti-mouse antibodies. The blots were developed in the Enhanced Chemiluminescence mixture and detected by ImageQuant™ LAS 4000 imaging system (GE). Density of protein bonds were calculated and analyzed by using imageJ software downloaded from the National Institute of Health website.

FL AR and AR-V7 [3] = target: T2, FL AR and AR-V7 (Homo sapiens, UniProt P10275); assay: Western blotting of FL AR and AR-V7 in VCaP cells; format: cell-based; details: full media, 16 h, 2-63, 12b 5 and 15 μM, Enz 10 μM
T2 construct: Whole cell lysates were subjected to Western blotting and probed with the indicated antibodies; endogenous in cells; host or cells: VCaP
T2 sequence (P10275 1-644 isoform P10275-3): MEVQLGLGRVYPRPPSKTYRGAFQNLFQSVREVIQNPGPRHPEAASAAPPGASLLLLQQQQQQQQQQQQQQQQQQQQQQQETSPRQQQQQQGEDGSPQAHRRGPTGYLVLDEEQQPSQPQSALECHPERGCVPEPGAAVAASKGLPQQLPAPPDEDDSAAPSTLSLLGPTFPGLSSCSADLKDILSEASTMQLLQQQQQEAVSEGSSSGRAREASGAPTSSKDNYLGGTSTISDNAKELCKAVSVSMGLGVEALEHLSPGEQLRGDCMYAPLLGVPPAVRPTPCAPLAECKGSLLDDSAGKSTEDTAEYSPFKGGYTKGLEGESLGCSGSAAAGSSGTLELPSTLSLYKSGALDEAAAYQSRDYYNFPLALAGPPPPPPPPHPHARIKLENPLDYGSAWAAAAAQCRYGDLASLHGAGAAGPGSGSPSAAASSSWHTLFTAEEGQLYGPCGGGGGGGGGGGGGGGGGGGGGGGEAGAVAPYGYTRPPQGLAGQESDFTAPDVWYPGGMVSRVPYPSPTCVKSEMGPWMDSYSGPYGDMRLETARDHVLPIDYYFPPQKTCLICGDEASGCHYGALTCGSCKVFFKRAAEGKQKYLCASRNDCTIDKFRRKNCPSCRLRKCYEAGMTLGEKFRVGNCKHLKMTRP
Protocol: as §2

[4] = test system: acetylation of α-tubulin and histone H3 (markers for HDAC6 and nuclear HDAC inhibition); assay: Western blotting of acetylation markers in VCaP cells; format: cell-based; details: 16 h, 2-63 and 12b 5 and 15 μM, SAHA 1 μM
Protocol: as §2

Hsp90, Hsp70, HO-1 = assay: Western blotting of Hsp90, Hsp70 and HO-1 in VCaP cells; format: cell-based; details: 16 h, 5 and 15 μM
Protocol: as §2

RWPE-1 cells = assay: BSO pretreatment plus 2-63, MTT viability, RWPE-1 cells; details: BSO up to 100 μM
Protocol: Cell viability was then assessed using an MTT assay.
PCa cells (6×10^3 cells/well) were seeded into 96-well plates overnight and then treated with indicated compounds at indicated concentrations and time durations. The MTT (3-(4, 5-Dimethylthiazol-2-yl)-2,5-diphenyltetrazolium bromide) assay was performed according to the standard protocol. Briefly, MTT (0.5 mg/mL) was incubated with cells at 37° C. for 3 hours. Supernatant was removed, followed by the addition of dimethyl DMSO (100 μl). After incubation for 30 minutes at 37° C., absorbance was read at 570 nm on a microplate reader.

Row | Compound | IC50 (VCaP cells) [µM] | relative potency in viability reduction, 22Rv1 cells (22Rv1 cells) | relative potency in viability reduction, C4-2 cells (C4-2 cells) | differential anti-proliferative effect, LNCaP vs RWPE-1 cells (LNCaP and RWPE-1 cells) | AR inhibition at 1 μM relative to Enz, 10b and 11b ([1]; 1 μM) | suppression of DHT-stimulated luciferase activity ([1]; 1-5 μM) | AR inhibition at higher concentrations relative to comparators ([1]; 2.5 and 5 μM) | FL AR expression (FL AR and AR-V7 [2]) | AR-V7 expression (FL AR and AR-V7 [3]) | histone H3 acetylation [4] | α-tubulin acetylation ([4]; SFN 15 μM) | Hsp70 protein level (Hsp90, Hsp70, HO-1) | Hsp90 protein level (Hsp90, Hsp70, HO-1) | enhancement of the potency of 2-63 by BSO in RWPE-1 cells (RWPE-1 cells)
1 | CC1(C)C(=O)N(c2ccc(C#N)c(C(F)(F)F)c2)C(=S)N1c1ccc(CCCCCCN=C=S)nc1 [12b, 4-(3-(6-(6-Isothiocyanatohexyl)pyridin-3-yl)-4,4-dimethyl-5-oxo-2-thioxoimidazolidin-1-yl)-2-(trifluoromethyl) benzonitrile] | 3.89 | more effective than 12a and 12b>2-63>PEITC-NAC | more effective than 12a and 12b>2-63>PEITC-NAC | almost equally suppressed | less effective | decreased luciferase activity in a dose-dependent manner | similarly with these non-ITC-containing compounds | seemed to be more effective | seemed to be more effective | did not show significant effects | did not show significant effects | significantly induced | did not change | –
2 | CCCCS(=N)(=O)CCC(N)C(=O)O [BSO, L-buthionine sulfoximine, reference compound] | – | – | – | – | – | – | – | – | – | – | – | – | – | does not notably enhance
